Measured values from US12565673B2, “Methods for the design of nonallosteric sirtuin activating compounds” (Chakrabarti Advanced Technology, LLC, priority 2020, dated 2026).

Molecular target: T1, hSirt3^102-399 (Homo sapiens, UniProt Q9NTG7)
T1 construct: hSirt3^102-399 was expressed in E. coli Arctic Express (DE3) cells; His-tag (only implied by the HisTrap / imidazole purification); made in house; host or cells: E. coli Arctic Express (DE3)
T1 sequence (Q9NTG7 102-399): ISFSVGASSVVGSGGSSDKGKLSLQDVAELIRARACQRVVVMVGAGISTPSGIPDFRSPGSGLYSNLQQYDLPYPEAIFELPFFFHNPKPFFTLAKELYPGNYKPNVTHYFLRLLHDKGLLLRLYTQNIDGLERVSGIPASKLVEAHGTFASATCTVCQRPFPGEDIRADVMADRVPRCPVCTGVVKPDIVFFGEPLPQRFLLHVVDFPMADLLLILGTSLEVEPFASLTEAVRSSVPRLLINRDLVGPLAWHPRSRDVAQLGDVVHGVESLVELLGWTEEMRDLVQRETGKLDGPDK
Experiment: hSirt3 ligand binding assay by microscale thermophoresis (MST)
Settings: Sirt3.Ac-MnSOD complex (FIG. 9)
Method: The binding affinities of ligands to complexes in the catalytic mechanism of SIRT3/MnSOD peptide substrate were measured using microscale thermophoresis (MST; FIG. 9, FIG. 10).
Briefly, the protein conjugation was done in 1×PBS pH 7.4, 0.05% Pluronic F-127, and the labeled protein was buffer exchanged into 47 mM Tris-HCl pH 8.0, 129 mM NaCl, 2.5 mM KCl, 0.94 mM MgCl2, 5% DMSO, 0.05% Tween-20. We used 2 nM labeled hSirt3 and titrated with varying concentrations of the modulators in the absence and presence of various concentrations of substrates, products and intermediates. The thermophoresis was measured (excitation/emission 653/672 nm) using a Monolith NT. […] Dissociation constants (Kd) were determined using GraFit7 (Erithacus Software) by nonlinear fitting.

Kd: < 10 µM
SMILES: C=CCc1ccc(O)c(-c2ccc(O)c(CC=C)c2)c1 [HKL, 5, 3′-Diallyl-2, 4′-dihydroxybiphenyl]
